“Also recorded” adds a separate entry of the source.
Legend:
[1] = Study 4: chronic feeding trial, 15 weeks; assay type: in vivo, Sprague Dawley Rats; conditions: rats; for bodyweight (prevention of weight gain, maintaining a lower weight): in food, 25 g/kg/d, 15 weeks, compared to standard diet, BHB-S, S-MCT
Source text: FIG. 3 depicts results of a chronic feeding trial in rats. SD: standard rodent chow (fed ad libitum); LKE: low-dose R,S 1,3-butanediol diacetoacetate (approx. 5 g/kg/day in food); HKE: high-dose R,S 1,3-butanediol diacetoacetate (approx. 25 g/kg/day in food); BHB-S: beta-hydroxybutyrate salt (approx. 25 g/kg/day in food); S-MCT: 1:1 beta-hydroxybutyrate salt: medium chain triglyceride oil (approx. 25 g/kg/day).

[2] = Study 5: weight loss to 20% with ketogenic agents vs caloric restriction, then return to ad libitum standard diet (weight loss maintenance); assay type: in vivo; conditions: C57BL/6J; for food efficiency during weight loss maintenance (bodyweight regain proportional to calories consumed, FIG. 6): after cessation of agent, ad libitum SD, compared to caloric restriction and butanediol; for weight loss as a ratio to caloric intake/day (FIG. 5B): compared to BHB, BHB+MCT and CR groups; for weight loss as ratio to kcal of ketogenic agent per total daily intake (FIGS. 4A-4B): compared to butanediol, BHB+MCT, BHB
Source text: FIGS. 4A-4B depict results of weight loss induced by various ketogenic agents against regular SD caloric restriction, illustrating the effectiveness of various ketogenic agents for inducing weight loss. Treatments: Beta-Hydroxybutyrate (BHB); Beta-Hydroxybutyrate+Medium Chain Triglycerides (BHB+MCT); Butanediol (BD); R,S 1,3-Butanediol Acetoacetate Diester (KE).
FIGS. 5A-5B depict treatment timeline of weight loss study utilizing various ketogenic agents against SD caloric restriction, as well as evaluation of weight loss potency of each ketogenic agent. Treatments: Standard Diet ad-Libitum (SD-AL); Standard Diet Caloric Restriction (CR); Beta-Hydroxybutyrate (BHB); Beta-Hydroxybutyrate+Medium Chain Triglycerides (BHB+MCT); Butanediol (BD); R,S 1,3-Butanediol Acetoacetate Diester (KE). […] These reductions in bodyweight were at lower percentages of the ketogenic agent within the food. Additionally, KE animals reach target weight loss at much LOWER % of ketogenic agent integrated into the diet.
FIG. 6 depicts food efficiency during weight loss maintenance by calculating bodyweight regain proportional to calories consumed. Treatments: Standard Diet ad-Libitum (SD-AL); Standard Diet Caloric Restriction (CR); Beta-Hydroxybutyrate (BHB); Beta-Hydroxybutyrate+Medium Chain Triglycerides (BHB+MCT); Butanediol (BD); R,S 1,3-Butanediol Acetoacetate Diester (KE).
C57BL/6J animals were obtained. Prior to experimental initiation, animals were randomly assigned to one (1) of five (5) groups: Caloric Restriction with standard diet (SD), Beta-hydroxybutyrate with SD (BHB), BHB+Medium Chain Triglycerides with SD (BHB+MCT), 1,3-Butanediol with SD (BD), and R,S 1,3 Butanediol Acetoacetate Diester with SD (KE). All animals initiated weight loss by either reducing the amount of calories consumed (CR group) or adding various % of ketogenic agents to induce weight loss. There was no difference in bodyweight across groups at baseline. All animals underwent weight loss until 20% weight loss was achieved. Upon reaching 20% weight loss, animals were switched back onto ad-libitum SD.
Calories intake, bodyweight, and kcal of ketogenic agent in diet were recorded daily. In order to calculate the effectiveness of each agent to induce weight loss, weight loss as both grams and % weight loss, was compared as a ratio to the amount of kcal from each ketogenic agent compared to total kcals consumed a day.

[3] = Study 1: chronic ad libitum feeding trial, 28 days; assay type: in vivo; conditions: VM/Dk mice, 10-20% by weight in standard chow; for bodyweight (weight loss and its maintenance): males and females, compared to SD or KD chow ad libitum
Protocol: FIGS. 1A-1H depict results of a chronic ad libitum feeding trial of male and female mice (Standard Diet Male (n=7)=SD-M; Ketogenic Diet Male (n=7)=KD-M; R/S 1,3 Butanediol Acetoacetate Diester (n=4)=KE-M; Standard Diet Female (n=7)=SD-F; Ketogenic Diet Female (n=6)=KD-F; R/S 1,3 Butanediol Acetoacetate Diester Female (n=4)=KE-F).
R,S 1,3-butanediol diacetoacetate (KE; 10-20% by weight mixed into standard chow) was administered to VM/Dk mice at for both males and females for 28 days. Standard rodent chow (SD) and ketogenic diet chow (KD) were administered to other VM/Dk mice ad libitum for comparison.

[4] = Study 3: acute oral gavage trial, 7 days; assay type: in vivo, Sprague Dawley Rats; conditions: rats
Protocol: FIGS. 2A-2B depict results of an acute gavage trial in rats.
R,S 1,3 butanediol diacetoacetate (KE) was administered to Sprague Dawley Rats by oral gavage (at 5 mL/kg, which may translate to about 300-700 mg/kg for a human). Water, BHB-salt, or BHB-salt+MCT mixture was administered to other Sprague Dawley Rats for comparison. Animals were provided ad libitum access to standard rodent chow.

[5] = agent in standard diet until 20% weight loss

beta-hydroxybutyrate salt [BHB-S, reference compound]
Approximate caloric intake compared to controls following adaptation to diet (weeks 13-15) ([1]; approx. 25 g/kg/day in food): ~−25% kcal
food efficiency during weight loss maintenance (bodyweight regain proportional to calories consumed, FIG. 6) [2]: help contribute to maintenance of weight loss after cessation of weight loss intervention by reducing food efficiency
food efficiency during weight loss maintenance (bodyweight regain proportional to calories consumed, FIG. 6) ([2]; listed as BHB): more effective at inducing inefficiencies in kcal consumed; also recorded: had lingering effects on food efficiency and weight loss maintenance; also recorded: helped maintain weight loss post cessation of agent administration
weight loss as a ratio to caloric intake/day (FIG. 5B) [2]: could be explained by caloric restriction alone

CC(=O)CC(=O)OCCC(C)OC(=O)CC(C)=O (stereo not shown) [KE, R,S 1,3-butanediol diacetoacetate]
Approximate caloric intake compared to controls following adaptation to diet (weeks 13-15) ([1]; approx. 25 g/kg/day in food): ~−7% kcal
bodyweight (prevention of weight gain, maintaining a lower weight) [1]: more effective than BHB-S or S-MCT at preventing weight gain and maintaining a lower weight
bodyweight (prevention of weight gain, maintaining a lower weight) ([1]; listed as R,S 1,3 butanediol diacetoacetate): significantly lower bodyweight
Approximate caloric intake compared to controls following adaptation to diet (weeks 13-15) ([1]; low dose, approx. 5 g/kg/day in food): ~+10% kcal
white adipose tissue ([3]; compared to SD or KD): induce reductions in white adipose tissue
bodyweight (weight loss and its maintenance) [3]: induced and maintained long-term weight loss
bodyweight (weight loss and its maintenance) ([3]; listed as ketone diester): lost significantly more bodyweight
food efficiency during weight loss maintenance (bodyweight regain proportional to calories consumed, FIG. 6) [2]: more effective at inducing inefficiencies in kcal consumed; also recorded: had lingering effects on food efficiency and weight loss maintenance
food efficiency during weight loss maintenance (bodyweight regain proportional to calories consumed, FIG. 6) ([2]; listed as R,S 1,3-butanediol diacetoacetate): help contribute to maintenance of weight loss after cessation of weight loss intervention by reducing food efficiency
speed of bodyweight reduction and % of agent in the diet needed (FIG. 5A) [2, 5]: induced a quicker reduction in bodyweight; also recorded: induces more rapid weight loss
weight loss as ratio to kcal of ketogenic agent per total daily intake (FIGS. 4A-4B) [2, 5]: superior per kcal used at inducing weight loss
weight loss as ratio to kcal of ketogenic agent per total daily intake (FIGS. 4A-4B) ([2]; agent in standard diet until 20% weight loss, listed as R,S 1,3 Butanediol Acetoacetate diester): superior weight loss agent per total average daily intake
weight loss as a ratio to caloric intake/day (FIG. 5B) [2]: significantly more potent at inducing weight loss when divided by total caloric intake
bodyweight (prevention of weight gain, maintaining a lower weight) ([4]; gavage 5 g/kg once daily (5 mL/kg), ad libitum standard chow, compared to water, BHB-S, S-MCT, p<0.01): more effective than BHB-S, S-MCT, or Control at preventing weight gain and maintaining a lower weight; also recorded: significantly lower bodyweight
calorie intake (self-restriction) ([4]; gavage once daily, ad libitum access to standard rodent chow): self-restricted calories

From US12310938B2, “Compositions and methods for weight loss maintenance” (priority 2017, dated 2025)
